Experimental data taken from US20230094922A1, “METHODS OF THERAPEUTIC PROGNOSTICATION” (GENETIKAPLUS LTD., priority 2020, published 2023).

System: iPSC-derived cortical neurons
Test: Pre- and post-synaptic marker (Synapsin, PSD95) puncta and colocalization imaging analysis
Type: cell-based, human
Details: for intact synapses (colocalization of pre- and post-synaptic terminals), treated vs untreated: 7 days after treatment (Bupropion also 3 days)
Procedure: iPSC differentiation into neurons-iPSCs were seeded at a density of 3×10^6 cells/well on a hESC-qualified Matrigel pre-coated 6-well plate and incubated at 37° C., 5% CO2 overnight. Differentiation was initiated the following day (day 0) after verifying that 100% confluency was reached. Differentiation media was added daily according to the following order: […]7 (day 15 onward) similar to a previously published protocol developed by for rapid differentiation to cortical neurons. The components of the described media, Q1-7, are provided in Appendix 1. Cells were assessed for differentiation efficiency and cell death on a daily basis. On day 9, differentiated neurons were re-plated on either 96-well plates (destined for staining) or 12-well plates (destined for RNA extraction) that were coated with 15 μg/mL Poly-ornithine diluted in PBS (overnight incubation at 37° C.), followed by 1 μg/mL Laminin and 2 μg/mL Fibronectin diluted in PBS (overnight incubation at 37° C.): Neurons were first rinsed with pre-warmed PBS and 1 ml/well of Accutase was added for 35 minutes at 37° C., 5% CO2. DNAse1 (0.5 mg/mL) was then added for 10 additional minutes. 3 ml of pre-warmed Neurobasal media was added to each well and neurons were gently collected using a 5 ml […]. Wells were then verified for the presence of any remaining neurons. Neurons were spun down and resuspended in Q6 media. Neurons were seeded at a density of 150,000 cells/cm^2 placed back at 37° C. Following four hours of incubation, media was changed to Q6 media (150 μl per 96-well and 1 ml per 12-well). […] For dendritic arborization analysis, pre/post-synaptic markers and colocalization analysis; α-Syn, PSD95 and MAP2 primary antibodies were used. Following washes, fluorophore-coupled secondary antibodies were incubated in the blocking solution for 1 hour at room temperature. The cells were counter-stained with 4',6-diamidino-2-phenylindole (DAPI) for nuclei detection for 15 minutes at room temperature followed by washes with PBS. Imaging was performed using Nikon Spinning Disk Confocal microscope. For imaging of pre- and post-synaptic markers, images were acquired with a 100× objective in z-stacks. For dendritic arborization analysis, images were acquired with a 20× objective in z-stacks. For imaging of dendritic spines, during culture treatment described in materials and methods, cells were infected at Day 20 with human syn-GFP or mKate virus and stained for GFP or mKate. Cells were fixed as described at day 35 and stained with antibodies against GFP or mKate respectively. Images were acquired using the Nikon Confocal Alit with a 60× objective and a 2× digital zoom in z-stacks and using the Nikon spinning disk Microscope with a 100× objective in z-stacks. Neuronal and synaptic morphology was assessed using the Neurolucida software, pre- and post-synaptic marker analysis was performed using CellProfiler and total dendritic length was measured using Fiji software. Immunohistochemical examination was carried out on the induced neuronal cells.

CNCCC=C1c2ccccc2CCc2ccccc21 [Nortriptyline, 1-Propanamine, 3-(10,11-dihydro-5H-dibenzo[a,d]cyclohepten-5-ylidene)-N-methyl-]
density of post-synaptic terminals (PSD95 puncta), responders vs non-responders (after treatment): increase in density was also present
intact synapses, responders vs non-responders (after treatment): significantly more intact synapses
intact synapses (colocalization of pre- and post-synaptic terminals), treated vs untreated (neurons from non-responders): no change or even a slight decrease
density of post-synaptic terminals (distance between PSD95 puncta), after vs before treatment (neurons from responders, 7 days after treatment): significant increase in density
intact synapses (colocalization of pre- and post-synaptic terminals), treated vs untreated (neurons from responders): significantly upregulated
